# In US20240239794A1, “PKC-Theta Modulators” (Exscientia AI Limited, priority 2021, published 2024):
# Where a name gives a salt, the structure may show the parent alone. Read-outs that look alike come from different tables or passages of the source.
# Columns and labels:
# [1] = test system: IL-2 secretion by human effector memory T cells (TEM); assay: Effector memory T cells IL-2 release assay; format: cell-based; conditions: T-cell, 24 h
# How it was run: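 Human CD4+ effector memory T cells (negatively sorted from donor PBMC), 5,000 per well, stimulated with CD3/CD28 beads and 10 semi-log compound doses for 24 h at 37° C, 0.1% DMSO. Supernatant IL-2 measured by HTRF; IC50 from 4-parameter logistic fit; viability checked by flow cytometry.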
# [2] = molecular target: Recombinant human PKC-delta (His-tagged 345-676) (Homo sapiens (Human), UniProt Q05655); assay: PKC-delta inhibition assay (HTRF KinEASE kit), PKC-theta/PKC-delta selectivity; format: biochemical; conditions: ratio; for PKC-theta/PKC-delta selectivity: PKC-theta over PKC-delta, HTRF assays; for PKC-theta/PKC-delta selectivity (binned): binned A to G
# How it was run: (§1)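 HTRF KinEASE kinase assay, buffer supplemented with 10 mM MgCl2, 1 mM DTT, 0.1% Tween 20; enzyme at 10 ng/ml preincubated 30 min on ice with compound. PKC-theta: 525 nM STK substrate, 6.5 μM ATP, 30 min at 25° C; PKC-delta: 243 nM substrate, 5.7 μM ATP, 20 min. IC50 from 4-parameter fit of 10-dose series.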
# [3] = molecular target: Recombinant human PKC-theta (His-tagged 362-706) (Homo sapiens (Human), UniProt Q04759); assay: PKC-theta inhibition assay (HTRF KinEASE kit); format: biochemical; conditions: ATP 6.5 μM
# How it was run: as §1
# [4] = human CD4+ TEM cells, CD3/CD28 bead stimulation, binned A to G, read-out: PKC-theta IL2 pIC50 (binned) (converted)
# [5] = human CD4+ TEM cells, CD3/CD28 bead stimulation, read-out: PKC-theta IL2 pIC50 (converted)
# [6] = binned A to H, read-out: PKC-theta HTRF pIC50 (binned) (converted)
# [7] = read-out: PKC-theta HTRF pIC50 (converted)
# [8] = Homo sapiens, read-out: PKC-theta IL2 pIC50 (binned) (converted)
# [9] = Homo sapiens, read-out: PKC-theta IL2 pIC50 (converted)
# Sequence of Recombinant human PKC-theta (His-tagged 362-706) (Q04759 362-706): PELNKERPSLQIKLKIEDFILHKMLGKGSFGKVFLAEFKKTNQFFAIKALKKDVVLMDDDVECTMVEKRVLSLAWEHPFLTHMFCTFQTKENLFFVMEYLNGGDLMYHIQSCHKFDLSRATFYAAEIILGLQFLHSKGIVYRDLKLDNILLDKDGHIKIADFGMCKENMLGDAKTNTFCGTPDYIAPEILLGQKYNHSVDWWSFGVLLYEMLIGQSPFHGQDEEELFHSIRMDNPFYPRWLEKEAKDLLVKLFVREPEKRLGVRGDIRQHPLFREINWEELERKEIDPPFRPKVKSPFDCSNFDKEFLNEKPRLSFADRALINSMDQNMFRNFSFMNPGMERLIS
# Sequence of Recombinant human PKC-delta (His-tagged 345-676) (Q05655 345-676): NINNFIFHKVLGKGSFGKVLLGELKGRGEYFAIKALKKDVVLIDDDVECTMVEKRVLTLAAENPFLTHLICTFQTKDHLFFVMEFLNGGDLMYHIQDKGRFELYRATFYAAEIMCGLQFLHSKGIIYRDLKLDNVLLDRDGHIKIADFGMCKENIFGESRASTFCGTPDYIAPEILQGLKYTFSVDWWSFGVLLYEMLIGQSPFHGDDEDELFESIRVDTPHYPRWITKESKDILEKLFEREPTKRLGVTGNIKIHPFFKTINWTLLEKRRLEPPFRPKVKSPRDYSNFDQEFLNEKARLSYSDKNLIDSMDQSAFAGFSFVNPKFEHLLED
"IC50 [1, 4] [nM]","IC50 [1, 5] [nM]",PKC-theta/PKC-delta selectivity [2],PKC-theta/PKC-delta selectivity (binned) [2],"IC50 [3, 6] [nM]","IC50 [3, 7] [nM]",PKC-theta HTRF pIC50 [3],SMILES,"IC50 [1, 8] [nM]","IC50 [1, 9] [nM]"
100 to 316,316,3,F (F means a ratio of between 1 and 5),3.16 to 10,6.31,–,"C[C@@]1(O)C(=O)Nc2nccc(-c3nn(C4(CC#N)CNC4)c4ccccc34)c21 (single isomer, unassigned) [Example 49]",–,–
31.6 to 100,100,13,D (D means a ratio of between 10 and 20),3.16 to 10,–,8.3,CCC1(C)C(=O)Nc2nccc(-c3nn([C@H]4CCNC4)c4ccccc34)c21 (stereo partly drawn) [Example 53],–,–
31.6 to 100,63.1,13,D (D means a ratio of between 10 and 20),1 to 3.16,1.58,–,"CC[C@@]1(O)C(=O)Nc2nccc(-c3nn([C@@H]4CCNC[C@@H]4F)c4ccccc34)c21 (single isomer, unassigned) [Example 83]",–,–
316 to 1000,631,23,C (C means a ratio of between 20 and 30),10 to 31.6,20,–,"CC[C@@]1(C)C(=O)Nc2nccc(-c3nn([C@H]4CCNC[C@H]4F)c4ccccc34)c21 (single isomer, unassigned) [Example 107]",–,–
316 to 1000,316,11,D (D means a ratio of between 10 and 20),10 to 31.6,–,7.9,CC1(O)C(=O)Nc2nccc(-c3cn([C@H]4CCNC4)c4ccccc34)c21 (stereo partly drawn) [Example 18],–,–
> 1000,1580,4,F (F means a ratio of between 1 and 5),31.6 to 100,–,7.2,CC1(O)C(=O)Nc2nccc(-c3ccn(C4CCNCC4)c3)c21 (stereo not drawn) [Example 11],–,–
10 to 31.6,20,16,D (D means a ratio of between 10 and 20),1 to 3.16,–,8.9,CC1(C)C(=O)Nc2nccc(-c3nn(CC4(F)CCNCC4)c4ccccc34)c21 [Example 38],–,–
10 to 31.6,25.1,12,D (D means a ratio of between 10 and 20),≤ 1,0.631,–,"C[C@@]1(O)C(=O)Nc2nccc(-c3nn(CC4(F)CCNCC4)c4ccccc34)c21 (single isomer, unassigned) [Example 47]",–,–
10 to 31.6,15.8,17,D (D means a ratio of between 10 and 20),≤ 1,0.2,–,"C[C@@]1(O)C(=O)Nc2nccc(-c3nn(C4(CC#N)CCC4)c4ccccc34)c21 (single isomer, unassigned) [Example 40]",–,–
31.6 to 100,50.1,3,F (F means a ratio of between 1 and 5),3.16 to 10,–,8.5,CC1(C)C(=O)Nc2nccc(-c3ccn([C@H]4CC[C@H](N)CC4)n3)c21 [Example 14],–,–
1 to 3.16,1.58,3,F (F means a ratio of between 1 and 5),≤ 1,–,9.5,CNC1(C)C(=O)Nc2nccc(-c3nn(C4(CC#N)CCC4)c4ccccc34)c21 (stereo not drawn) [Example 62],–,–
31.6 to 100,50.1,10,D (D means a ratio of between 10 and 20),≤ 1,1,–,"CO[C@@]1(C)C(=O)Nc2nccc(-c3nn(CC4(F)CCNCC4)c4ccccc34)c21 (single isomer, unassigned) [Example 78]",–,–
10 to 31.6,20,6,E (E means a ratio of between 5 and 10),≤ 1,–,9.3,"CC1(O)C(=O)Nc2nccc(-c3nn(C4(CC#N)CCC4)c4ccccc34)c21 (stereo not drawn) [Example 25, 2-[1-[3-(3-hydroxy-3-methyl-2-oxo-1H-pyrrolo[2,3-b]pyridin-4-yl)indazol-1-yl]cyclobutyl]acetonitrile]",–,–
10 to 31.6,25.1,19,D (D means a ratio of between 10 and 20),1 to 3.16,–,8.6,CC1(C)C(=O)Nc2nccc(-c3nn([C@@H]4CCNC[C@@H]4F)c4ccccc34)c21 [Example 37],–,–
> 1000,1260,26,C (C means a ratio of between 20 and 30),10 to 31.6,–,7.5,CC1(C)C(=O)Nc2nccc(-c3nn(C[C@H]4COCCN4)c4ccccc34)c21 [Example 86],–,–
10 to 31.6,12.6,15,D (D means a ratio of between 10 and 20),≤ 1,0.794,–,"CC[C@]1(C)C(=O)Nc2nccc(-c3nn([C@@H]4CCNC[C@@H]4F)c4ccccc34)c21 (single isomer, unassigned) [Example 106]",–,–
31.6 to 100,39.8,8,E (E means a ratio of between 5 and 10),3.16 to 10,–,8.4,CCC1(C)C(=O)Nc2nccc(-c3nn([C@@H]4CCNC[C@@H]4F)c4ccccc34)c21 (stereo partly drawn) [Example 52],–,–
31.6 to 100,63.1,22,C (C means a ratio of between 20 and 30),1 to 3.16,2.51,–,"CC[C@@]1(C)C(=O)Nc2nccc(-c3nn([C@@H]4CCNC[C@@H]4F)c4cc(F)ccc34)c21 (single isomer, unassigned) [Example 103]",–,–
> 1000,3980,2,F (F means a ratio of between 1 and 5),> 1000,–,6.0,COCc1cc(-c2ccnc3[nH]c(=O)[nH]c23)cn1C1CCNCC1 [Example 4],–,–
31.6 to 100,39.8,15,D (D means a ratio of between 10 and 20),1 to 3.16,–,8.7,CC1(C)C(=O)Nc2nccc(-c3nn(C4CCNCC4)c4ccccc34)c21 [Example 9],–,–
100 to 316,200,20,D (D means a ratio of between 10 and 20),10 to 31.6,–,7.9,CC1(C)C(=O)Nc2nccc(-c3nn([C@H]4CCNC4)c4c(F)cccc34)c21 [Example 72],–,–
100 to 316,200,13,D (D means a ratio of between 10 and 20),10 to 31.6,–,7.8,CC1(C)C(=O)Nc2nccc(-c3nn([C@H]4CCCNC4)c4ccccc34)c21 [Example 20],–,–
> 1000,1000,15,D (D means a ratio of between 10 and 20),31.6 to 100,–,7.4,CC1(C)C(=O)Nc2nccc(-c3nn(C4(CC#N)COC4)c4ccccc34)c21 [Example 45],–,–

SMILES,"IC50 [1, 4] [nM]","IC50 [1, 5] [nM]",PKC-theta/PKC-delta selectivity [2],PKC-theta/PKC-delta selectivity (binned) [2],"IC50 [3, 6] [nM]","IC50 [3, 7] [nM]",PKC-theta HTRF pIC50 [3],"IC50 [1, 8] [nM]","IC50 [1, 9] [nM]"
"CC1(C)C(=O)Nc2nccc(-c3nn([C@H]4CCNC4)c4ccccc34)c21 [Example 16, 3,3-dimethyl-4-[1-[(3S)-pyrrolidin-3-yl]indazol-3-yl]-1H-pyrrolo[2,3-b]pyridin-2-one Dihydrochloride]",–,–,18,D (D means a ratio of between 10 and 20),3.16 to 10,–,8.3,31.6 to 100,63.1
"O=C1Nc2nccc(-c3nn(C4(CO)CCNC4)c4cc(F)ccc34)c2C12CCCC2 (stereo not drawn) [Example 55, 4-[6-fluoro-1-[3-(hydroxymethyl)pyrrolidin-3-yl]indazol-3-yl]spiro[1H-pyrrolo[2,3-b]pyridine-3,1′-cyclopentane]-2-one dihydrochloride]",–,–,4,F (F means a ratio of between 1 and 5),3.16 to 10,–,8.2,100 to 316,158
